Reference: patent publication US9902701B2, “Pyridazones and triazinones for treatment and prophylaxis of hepatitis B virus infection” (priority 2014, dated 2018)
pIC50: −log10 of the molar value.

Test system: HBsAg
Experiment: HBsAg assay: chemiluminescence immunoassay (CLIA) of secreted HBsAg in supernatant of HepG2.2.15 cells
Type: cell-based, HBV
Conditions: Hepatitis B virus
Protocol: HepG2.2.15 cells (Acs et al. Proc Natl Acad Sci USA, 84, (1987), 4641-4), a constitutively HBV-expressing cell line were cultured in DMEM+Glutamax-I medium (Invitrogen, Carlsbad, Calif., USA), supplemented with 10% fetal bovine serum (Invitrogen) and G418 (Invitrogen) at a final concentration of 200 mg/L and maintained in 5% CO2 at 37° C.
HepG2.2.15 cells were seeded in duplicate into white, 96-well plates at 1.5×10^4 cells/well. The cells were treated with a three-fold serial dilution series of the compounds in DMSO. The final DMSO concentration in all wells was 1% and DMSO was used as no drug control.
The HBsAg chemiluminescence immunoassay (CLIA) kit (Autobio Diagnostics Co., Zhengzhou, China, Catalog number: CL0310-2) was used to measure the levels of secreted HBV antigens semi-quantitatively. For the detection 50 μL/well culture supernatant was used and HBsAg was quantified using HBsAg chemiluminescence immunoassay (CLIA) kit (Autobio Diagnostics Co., Zhengzhou, China, Catalog number: CL0310-2), 50 μL of the supernatant was transferred to the CLIA assay plate and 50 μL of enzyme conjugate reagent was added into each well. The plates were sealed and gently agitated for 1 hour at room temperature. The supernatant-enzyme-mixture was discarded and wells were washed 6 times with 300 μL of PBS. The residual liquid was removed by plating the CLIA plate […] on absorbent tissue paper. 25 μL of substrates A and B were added to each well. Luminance was measured using a luminometer (Mithras LB 940 Multimode Microplate Reader) after 10 minutes incubation. Dose-response curves were generated and the IC50 value was extrapolated by using the E-WorkBook Suite (ID Business Solutions Ltd., Guildford, UK). The IC50 was defined as the compound concentration (or conditioned media log dilution) at which HBsAg secretion was reduced by 50% compared to the no drug control.

SMILES | pIC50
CN(C(=O)CN1N=C(c2ccc(Cl)cc2)CCC1=O)c1ccc(Cl)cc1 [Example 1-1, N-(4-Chlorophenyl)-2-[3-(4-chlorophenyl)-6-oxo-4,5-dihydropyridazin-1-yl]-N-methyl-acetamide] | 5.80
CN(C(=O)CN1N=C(c2ccc(Cl)cc2)CCC1=O)c1ccc(F)c(C(F)(F)F)c1 [Example 1-2, 2-[3-(4-Chlorophenyl)-6-oxo-4,5-dihydropyridazin-1-yl]-N-[4-fluoro-3-(trifluoromethyl)phenyl]-N-methyl-acetamide] | 6.13
CN(C(=O)CN1N=C(c2ccc(Cl)cc2)CCC1=O)c1ccc(C(F)(F)F)c(F)c1 [Example 1-3, 2-[3-(4-Chlorophenyl)-6-oxo-4,5-dihydropyridazin-1-yl]-N-[3-fluoro-4-(trifluoromethyl)phenyl]-N-methyl-acetamide] | 6.52
CN(C(=O)CN1N=C(c2ccc(Cl)cc2)CCC1=O)c1ccc(Cl)c(F)c1 [Example 1-4, N-(4-Chloro-3-fluoro-phenyl)-2-[3-(4-chlorophenyl)-6-oxo-4,5-dihydropyridazin-1-yl]-N-methyl-acetamide] | 6.00
COc1cccc(N(C)C(=O)CN2N=C(c3ccc(Cl)cc3)CCC2=O)c1 [Example 1-5, 2-[3-(4-Chlorophenyl)-6-oxo-4,5-dihydropyridazin-1-yl]-N-(3-methoxyphenyl)-N-methyl-acetamide] | 5.02
CN(C(=O)CN1N=C(c2ccc(Cl)cc2)CCC1=O)c1ccc(F)cc1 [Example 1-6, 2-[3-(4-Chlorophenyl)-6-oxo-4,5-dihydropyridazin-1-yl]-N-(4-fluorophenyl)-N-methyl-acetamide] | 5.44
Cc1ccc(N(C)C(=O)CN2N=C(c3ccc(Cl)cc3)CCC2=O)cc1 [Example 1-7, 2-[3-(4-Chlorophenyl)-6-oxo-4,5-dihydropyridazin-1-yl]-N-methyl-N-(p-tolyl)acetamide] | 5.60
CN(C(=O)CN1N=C(c2ccc(Cl)cc2)CCC1=O)c1ccc(Cl)c(Cl)c1 [Example 1-8, 2-[3-(4-Chlorophenyl)-6-oxo-4,5-dihydropyridazin-1-yl]-N-(3,4-dichlorophenyl)-N-methyl-acetamide] | 6.61
CN(C(=O)CN1N=C(c2ccc(Cl)cc2)CCC1=O)c1ccc(C(F)(F)F)cc1 [Example 1-9, 2-[3-(4-Chlorophenyl)-6-oxo-4,5-dihydropyridazin-1-yl]-N-methyl-N-[4-(trifluoromethyl)phenyl]acetamide] | 6.41
CN(C(=O)CN1N=C(c2ccc(Cl)cc2)CCC1=O)c1ccc(C#N)cc1 [Example 1-10, 2-[3-(4-Chlorophenyl)-6-oxo-4,5-dihydropyridazin-1-yl]-N-(4-cyanophenyl)-N-methyl-acetamide] | 5.25
COC(=O)c1ccc(N(C)C(=O)CN2N=C(c3ccc(Cl)cc3)CCC2=O)cc1 [Example 1-11, Methyl 4-[[2-[3-(4-chlorophenyl)-6-oxo-4,5-dihydropyridazin-1-yl]acetyl]-methyl-amino]benzoate] | 5.06
CC(C)N(C(=O)c1ccc(N(C)C(=O)CN2N=C(c3ccc(Cl)cc3)CCC2=O)cc1)C(C)C [Example 1-12, 4-[[2-[3-(4-Chlorophenyl)-6-oxo-4,5-dihydropyridazin-1-yl]acetyl]-methyl-amino]-N,N-diisopropyl-benzamide] | 6.05
CN(C(=O)CN1N=C(c2ccc(Cl)cc2)CCC1=O)c1ccc(F)cc1F [Example 1-13, 2-[3-(4-Chlorophenyl)-6-oxo-4,5-dihydropyridazin-1-yl]-N-(2,4-difluorophenyl)-N-methyl-acetamide] | 5.18
CCCCCN(C)C(=O)c1ccc(N(C)C(=O)CN2N=C(c3ccc(Cl)cc3)CCC2=O)cc1 [Example 1-14, 4-[[2-[3-(4-Chlorophenyl)-6-oxo-4,5-dihydropyridazin-1-yl]acetyl]-methyl-amino]-N-methyl-N-pentyl-benzamide] | 5.52
CN(C(=O)CN1N=C(c2ccc(Cl)cc2)CCC1=O)c1ccc(C(=O)NC2CCCCC2)cc1 [Example 1-15, 4-[[2-[3-(4-Chlorophenyl)-6-oxo-4,5-dihydropyridazin-1-yl]acetyl]-methyl-amino]-N-cyclohexyl-benzamide] | 5.28
CN(C(=O)CN1N=C(c2ccc(Cl)cc2)CCC1=O)c1ccc(OC(F)(F)F)cc1 [Example 1-16, 2-[3-(4-Chlorophenyl)-6-oxo-4,5-dihydropyridazin-1-yl]-N-methyl-N-[4-(trifluoromethoxy)phenyl]acetamide] | 5.41
CN(C(=O)CN1N=C(c2ccc(Cl)cc2)CCC1=O)c1cccc(F)c1 [Example 1-17, 2-[3-(4-Chlorophenyl)-6-oxo-4,5-dihydropyridazin-1-yl]-N-(3-fluorophenyl)-N-methyl-acetamide] | 5.93
CN(C(=O)CN1N=C(c2ccc(Cl)cc2)CCC1=O)c1cccc(Cl)c1 [Example 1-18, N-(3-Chlorophenyl)-2-[3-(4-chlorophenyl)-6-oxo-4,5-dihydropyridazin-1-yl]-N-methyl-acetamide] | 6.05
CN(C(=O)CN1N=C(c2ccc(Cl)cc2)CCC1=O)c1cccc(C(F)(F)F)c1 [Example 1-19, 2-[3-(4-Chlorophenyl)-6-oxo-4,5-dihydropyridazin-1-yl]-N-methyl-N-[3-(trifluoromethyl)phenyl]acetamide] | 6.00
COc1ccc(N(C)C(=O)CN2N=C(c3ccc(Cl)cc3)CCC2=O)cc1 [Example 1-20, 2-[3-(4-Chlorophenyl)-6-oxo-4,5-dihydropyridazin-1-yl]-N-(4-methoxyphenyl)-N-methyl-acetamide] | 5.24
Cc1cccc(N(C)C(=O)CN2N=C(c3ccc(Cl)cc3)CCC2=O)c1 [Example 1-21, 2-[3-(4-Chlorophenyl)-6-oxo-4,5-dihydropyridazin-1-yl]-N-methyl-N-(m-tolyl)acetamide] | 5.68
CN(C(=O)CN1N=C(c2ccc(Cl)c(F)c2)CCC1=O)c1ccc(F)cc1 [Example 1-22, 2-[3-(4-Chloro-3-fluoro-phenyl)-6-oxo-4,5-dihydropyridazin-1-yl]-N-(4-fluorophenyl)-N-methyl-acetamide] | 6.03
CN(C(=O)CN1N=C(c2ccc(Cl)c(F)c2)CCC1=O)c1cccc(F)c1 [Example 1-23, 2-[3-(4-Chloro-3-fluoro-phenyl)-6-oxo-4,5-dihydropyridazin-1-yl]-N-(3-fluorophenyl)-N-methyl-acetamide] | 6.34
CN(C(=O)CN1N=C(c2ccc(Cl)c(F)c2)CCC1=O)c1cccc(Cl)c1 [Example 1-24, 2-[3-(4-Chloro-3-fluoro-phenyl)-6-oxo-4,5-dihydropyridazin-1-yl]-N-(3-chlorophenyl)-N-methyl-acetamide] | 6.77
CN(C(=O)CN1N=C(c2ccc(Cl)c(F)c2)CCC1=O)c1ccc(C(F)(F)F)cc1 [Example 1-25, 2-[3-(4-Chloro-3-fluoro-phenyl)-6-oxo-4,5-dihydropyridazin-1-yl]-N-methyl-N-[4-(trifluoromethyl)phenyl]acetamide] | 6.62
Cc1cc(Cl)ccc1C1=NN(CC(=O)N(C)c2ccc(Cl)cc2)C(=O)CC1 [Example 1-26, 2-[3-(4-Chloro-2-methylphenyl)-6-oxo-4,5-dihydropyridazin-1-yl]-N-(4-chlorophenyl)-N-methyl-acetamide] | 5.73
Cc1cc(Cl)ccc1C1=NN(CC(=O)N(C)c2cccc(Cl)c2)C(=O)CC1 [Example 1-27, 2-[3-(4-Chloro-2-methyl-phenyl)-6-oxo-4,5-dihydropyridazin-1-yl]-N-(3-chlorophenyl)-N-methyl-acetamide] | 6.09
